Measurements reported in patent publication US20240269128A1, “COMPOUNDS FOR TREATING OR PREVENTING ALZHEIMER'S DISEASE” (THE UNITED STATES OF AMERICA, as represented by the …, priority 2021, published 2024).

Test system: BV-2 cells
Test: Aβ1-42 clearance assay
Format: cell-based, mouse
Description: AB Clearance: For the amyloid beta (Aβ) clearance assay, 20000 BV-2 cells per well (uncoated 96 well plates) were plated out. After changing cells to treatment medium, drug compounds were administered 1 hour before Aβ stimulation (Bachem 4061966; final concentration in well: 200 ng/ml (dilutions in medium)). Cells treated with vehicle and cells treated with Aβ alone served as controls. After 3 h of Aβ stimulation, cell supernatants were collected for the Aβ measurement and cells were carefully washed twice with PBS and thereafter lysed in 35 μL cell lysis buffer (50 mM Tris-HCl, pH 7.4, 150 mM NaCl, 5 mM EDTA, 1% SDS) supplemented with protease inhibitors. Supernatants and cell lysates were analyzed for human Aβ42 with MSD® V-PLEX Human Aβ42 Peptide (6E10) Kit (K151LBE, Mesoscale Discovery). The immune assay was carried out according to the manual and plates were read on the MESO QuickPlex SQ 120.
Aβ1-42 clearance: For Abeta (Aβ1-42) clearance assay, 20,000 BV-2 cells per well (uncoated 96 well plates) were plated out. After changing cells to treatment medium, HCQ (0.25 μM, 2.5 μM and 25 μM) was applied 1 hour before Aβ1-42 stimulation (Bachem 4061966; final concentration in well: 200 ng/ml (dilutions in medium)). Cells treated with vehicle (0.1% DMSO) and cells treated with Aβ1-42 alone served as controls. After 3 h of Aβ1-42 stimulation, cell supernatants were collected for the Aβ1-42 measurement and cells were carefully washed twice with PBS and thereafter lysed in 35 μL cell lysis buffer (50 mM Tris-HCl, pH 7.4, 150 mM NaCl, 5 mM EDTA, 1% SDS) supplemented with protease inhibitors. Supernatants and cell lysates were analyzed for human Aβ1-42 with MSD® V-PLEX Human Aβ42 Peptide (6E10) Kit (K151LBE, Mesoscale Discovery). The immune assay was carried out according to the manufacturer's manual and plates were read on the MESO QuickPlex SQ 120.
Aβ Clearance: 20,000 BV2 cells per well (uncoated 96-well plates were plated out. After changing cells to treatment medium, drug compounds were administered 1 hour before Aβ stimulation (final concentration in well 200 ng/ml; dilutions in medium). Cells treated with vehicle and cells treated with Aβ alone served as controls. After 3 hours of Aβ stimulation, cell supernatants were collected for the Aβ measurement and cells were carefully washed twice with PBS and thereafter lysed in 35 μl of cell lysis buffer (50 mM tris-HCl, pH 7.4, 150 mM NaCl, 5 mM EDTA, and 1% SDS) supplemented with protease inhibitors. Supernatants and cell lysates were analyzed for human Aβ42 with the MSD V-PLEX Human Aβ42 Peptide (6E10) Kit (K151LBE, Mesoscale Discovery). The immune assay was carried out according to the manual, and plates were read on MESO QuickPlex SQ 120 (Meso Scale Diagnostics, Rockville, MD).
For Aβ clearance assay, 20,000 BV-2 cells per well (uncoated 96 well plates) were plated out. After 24 hours, medium was changed to treatment medium (DMEM, 5% FCS, 2 mM L-glutamine) and cells were maintained in treatment medium for the remaining culture period. After changing cells to treatment medium, the test items were administered 1 hour before Aβ stimulation (Bachem 4061966; final concentration in well: 200 ng/mL (dilutions in medium)). Cells treated with vehicle, cells treated with Aβ alone, as well as wells with Aβ but no cells served as controls. All wells were handled the same way. After 3 h of Aβ stimulation, cell supernatants were collected for the Aβ measurement and cells were carefully washed twice with PBS and thereafter lysed in 35 μl cell lysis buffer (50 mM Tris-HCl, pH 7.4, 150 mM NaCl, 5 mM EDTA, 1% SDS) supplemented with protease inhibitors. Cells were incubated for 15 min at RT on a plate shaker, samples were frozen at −80° C. until further use. The experiment was performed in n=6 technical replicates for all groups. […]

SMILES	Aβ1-42 clearance (25 μM)	Aβ1-42 in the supernatant (25 μM)	Aβ1-42 supernatant:lysate ratio (25 μM)	cell viability (25 μM)	effect in Aβ clearance (BV2 cells) (posterior probability of a protective effect, Bayesian dose-response model)
CCN(CCO)CCCC(C)Nc1ccnc2cc(Cl)ccc12 (centres unmarked) [HCQ, hydroxychloroquine]	increased	reduced	lowering	without adverse effects on cell viability	
C[C@H](CCC(=O)NCCS(=O)(=O)O)[C@H]1CC[C@H]2[C@@H]3[C@@H](O)C[C@@H]4C[C@H](O)CC[C@]4(C)[C@H]3CC[C@]12C [TUDCA, tauroursodeoxycholic acid]					strongly protective
